The values that follow come from publication PMC6268941, “The Binding Affinity and Molecular Basis of the Structure-Binding Relationship between Urinary Tamm-Horsfall Glycoprotein and Tumor Necrosis Factor-α” (Molecules, 2012).

T1 sequence (P01375 77-233, other chains not shown): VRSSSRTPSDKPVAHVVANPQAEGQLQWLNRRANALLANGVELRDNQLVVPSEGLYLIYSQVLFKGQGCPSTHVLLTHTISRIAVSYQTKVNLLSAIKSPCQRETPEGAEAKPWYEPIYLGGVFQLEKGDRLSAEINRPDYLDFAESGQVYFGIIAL

This assay addresses T1, THP-TNF-α (Tamm-Horsfall glycoprotein / tumor necrosis factor-α binding pair) (Homo sapiens, UniProt P01375+P07911).
T1 construct: recombinant human TNF-α (R&D Systems, 17 kDa); native THP purified from normal human urine (80-90 kDa)
The experiment in a line: ELISA, monosaccharide inhibition of THP-TNF-α binding. Conditions: 10 µg sugar preincubated overnight at 4 °C with coated TNF-α or coated THP, then the other protein added; which partner holds the sugar is not resolved.
For the compound `CC(=O)N[C@H]1C(O)O[C@H](CO)[C@H](O)[C@@H]1O` (stereo partly drawn) [N-acetyl-galactosamine], the “ELISA, monosaccharide inhibition of THP-TNF-α binding” value is “mannose, GlcNAc, and GalNAc significantly suppressed THP-TNF-α binding”.
With `CO[C@H]1O[C@H](CO)[C@@H](O)[C@H](O)[C@@H]1O` [α-methyl-D-mannoside] the entry was “mannose, GlcNAc, and GalNAc significantly suppressed THP-TNF-α binding”; with `CC(=O)N[C@H]1C(O)O[C@H](CO)[C@@H](O)[C@@H]1O` (stereo partly drawn) [N-acetyl-glucosamine], “mannose, GlcNAc, and GalNAc significantly suppressed THP-TNF-α binding”.
